The text below walks through data of US11518750B2, “3-methylideneoxan-4-one compounds and substituted derivatives thereof as inhibitors of telomerase” (NORTHWESTERN UNIVERSITY, priority 2019, dated 2022).

Data set [1] addresses T1, telomerase in MCF7 cells in culture (Homo sapiens, UniProt O14746).
T1 construct: endogenous in cells; host or cells: MCF-7
Briefly: TRAP assay in cultured cells. The class given is cell-based. The following applies: TRAP assay, MCF7 cells in culture. Here is the method: Telomeric Repeat Amplification Protocol Assay. The telomeric repeat amplification protocol (TRAP) assay was performed using the TRAPeze RT Telomerase Detection Kit (EMD Millipore) and iTaq DNA polymerase (Bio-Rad) according to the manufacturer's protocol.
Cultured Cells TRAP Analysis. MCF-7, HeLa, ACHN, MDA-MB231 and A549 cells were cultured in DMEM media supplemented with 10% Fetal Bovine Serum (FBS), 1% pen/strep and with 5% CO2 and 37° C. Cells were plated in 96 well plates and allowed to attach for 24 h. Media was removed, and fresh media containing various concentrations of compound was added, and the plate was incubated for 24 h. […] The cell extract was then centrifuged at 12,000×g for 20 min at 4° C. to remove cell debris. Note: “fresh” media constitutes media supplemented with 10% Fetal Bovine Serum (FBS) and 1% pen/strep that has not been previously used for cell culture (e.g., not conditioned media). TRAP analysis was conducted as above.

The next data set has as its system MCF-7 cells. Briefly: Compound washout cell viability. The class given is cell-based, human. The following applies: washed, fresh media, 24 h. Here is the method:
Compound Washout Cell Viability Measurements. MCF-7 cells were plated in 96 well plates and allowed to attach for 24 h. Media was removed, and fresh media containing various concentrations of compound was added, and the plate was incubated for 24 h. Media was removed, cells were washed 2 times with PBS, and fresh media without compound was added. Cells were incubated at 37° C. for an additional “X” h and analyzed as above. Note: “fresh” media constitutes media supplemented with 10% Fetal Bovine Serum (FBS) and 1% pen/strep that has not been previously used for cell culture (e.g., not conditioned media).

Data set [2] is described as follows: Schiff-base measurement with glycine. The class given is physicochemical. As to conditions: incubation with glycine. Here is the method:
Schiff-Base Measurement. A 1 mM stock solution of NU-1 in DMSO-d6 was added to a solution of 5 mM solution of glycine in D2O in an NMR tube. The mixture was analyzed by ^1H NMR over 48 hours to analyze formation of Schiff-bases with the ketone of NU-1.

The next data set concerns the target T2, telomerase in MCF7 cells (Homo sapiens, UniProt O14746).
T2 construct: endogenous in cells; host or cells: MCF-7
Description: Compound washout TRAP analysis. The class given is cell-based. Here is the method: Compound Washout TRAP analysis. MCF-7 cells were plated in 96 well plates and allowed to attach for 24 h. Media was removed, and fresh media containing various concentrations of compound was added, and the plate was incubated for 24 h. Media was removed, cells were washed 2 times with PBS, and fresh media without compound was added. Cells were incubated at 37° C. for an additional “X” hours. […] The cell extract was then centrifuged at 12,000 g for 20 min at 4° C. to remove cell debris. Note: “fresh” media constitutes media supplemented with 10% Fetal Bovine Serum (FBS) and 1% pen/strep that has not been previously used for cell culture (e.g., not conditioned media”). TRAP analysis was conducted as above.

For another data set, the system named is tcTERT. Description: Protease digestion and mass spectrometry of treated tcTERT. The class given is binding, Tribolium castaneum. The following applies: proteolysis and tandem mass spectrometry. Here is the method: Protease Digestion and Mass Spectrometry Analysis. tcTERT (50 μg, ˜600 pmol) was treated with chrolactomycin, NU-1, helenalin, costunolide or DMSO for 1 hr at 37° C. The reaction was diluted with ammonium bicarbonate buffer (pH 8.0), then reduced for 30 min at 56° C. with 10 mM DTT. After cooling to 23° C., the protein was alkylated with 25 mM iodoacetamide for 30 min at 23° C. in the dark, followed by trypsin digestion (2.5 μg, Promega) overnight at 37° C. Digested peptides (˜2 pmol) were injected onto a self-packed precolumn (4 cm POROS10R2) and eluted into the mass spectrometer (LTQ Orbitrap Velos, Thermo Fisher). Peptides were subjected to MS^2 by CAD (electron multiplier detection, relative collision energy 35%, q=0.25).

The nature of data set [3]: Liver microsomal stability assay. Type of data set: in vitro ADME. The following applies: in words. Here is the method:
Liver Microsomal Stability Assay. Assay was conducted using the Corning UltraPool HLM 150 Mixed Gender microsomal kit (Corning Life Sciences) according to the manufacturer's protocol.
On the technique in general: Liver microsomes are a subcellular fraction often used to study metabolism.

A further data set deals with Saos-2. Briefly: Cell viability, telomerase-negative cells. The class given is cell-based. The following applies: Saos-2, up to 100 μM.
The test system of the next data set is MCF7 cells. Description: Cell viability (CellTiter-Glo), telomerase-positive cells. Type of data set: cell-based, human. The following applies: Homo sapiens, read-out: IC50, loss of viability. Here is the method: Cell Viability Measurements. MCF-7, HeLa, MDA-MB231 and A549 cells were cultured in DMEM media supplemented with 10% Fetal Bovine Serum (FBS), 1% pen/strep and with 5% CO2 and 37° C. Cells were plated in 96 well plates and allowed to attach for 24 h. Media was removed, and fresh media containing various concentrations of compound was added, and the plate was incubated for 24 h. The plate was removed from the incubator and allowed to equilibrate to room temperature for 30 min. 50 μl of freshly prepared CellTiter-Glo (Promega) reagent was added, and the plate was mixed on an orbital shaker for 10 min to induce cell lysis and stabilize luminescent signal. The luminescence was recorded on a PerkinElmer Enspire multimode plate reader.

The nature of a further data set: Lipophilicity. The class given is physicochemical. As to conditions: in words.
Data set [4] has as its target T3, Human telomerase purified from telomerase-overexpressing HEK293T cells (Homo sapiens, UniProt O14746).
T3 construct: made in house; host or cells: HEK293T (telomerase-overexpressing)
Description: Direct (non-PCR) primer extension telomerase activity assay, purified telomerase. Type of data set: biochemical. As to conditions: purified telomerase. Here is the method:
Primer-Extension Telomerase Activity Assays. […] ID NO: 1) (2 μM)].

Data set [5] has as its target T4, endogenous telomerase in MCF-7 and A549 cells (Homo sapiens, UniProt O14746).
T4 construct: endogenous in cells; host or cells: MCF-7 and A549
Description: Endogenous telomerase activity after cell treatment (primer extension). Type of data set: cell-based. As to conditions: 10 μM, 24 h. Here is the method: For FIG. 4C, the control or treated cells were prepared and collected as pellets of 5×10^6 cells each at NW and pellets were shipped to CMRI on dry ice. Frozen cell pellets were thawed on wet ice and suspended in 1 mL telomerase buffer supplemented with 1 mM PMSF. Endogenous telomerase was immunopurified and assayed as described.

T2 sequence (O14746 whole entry): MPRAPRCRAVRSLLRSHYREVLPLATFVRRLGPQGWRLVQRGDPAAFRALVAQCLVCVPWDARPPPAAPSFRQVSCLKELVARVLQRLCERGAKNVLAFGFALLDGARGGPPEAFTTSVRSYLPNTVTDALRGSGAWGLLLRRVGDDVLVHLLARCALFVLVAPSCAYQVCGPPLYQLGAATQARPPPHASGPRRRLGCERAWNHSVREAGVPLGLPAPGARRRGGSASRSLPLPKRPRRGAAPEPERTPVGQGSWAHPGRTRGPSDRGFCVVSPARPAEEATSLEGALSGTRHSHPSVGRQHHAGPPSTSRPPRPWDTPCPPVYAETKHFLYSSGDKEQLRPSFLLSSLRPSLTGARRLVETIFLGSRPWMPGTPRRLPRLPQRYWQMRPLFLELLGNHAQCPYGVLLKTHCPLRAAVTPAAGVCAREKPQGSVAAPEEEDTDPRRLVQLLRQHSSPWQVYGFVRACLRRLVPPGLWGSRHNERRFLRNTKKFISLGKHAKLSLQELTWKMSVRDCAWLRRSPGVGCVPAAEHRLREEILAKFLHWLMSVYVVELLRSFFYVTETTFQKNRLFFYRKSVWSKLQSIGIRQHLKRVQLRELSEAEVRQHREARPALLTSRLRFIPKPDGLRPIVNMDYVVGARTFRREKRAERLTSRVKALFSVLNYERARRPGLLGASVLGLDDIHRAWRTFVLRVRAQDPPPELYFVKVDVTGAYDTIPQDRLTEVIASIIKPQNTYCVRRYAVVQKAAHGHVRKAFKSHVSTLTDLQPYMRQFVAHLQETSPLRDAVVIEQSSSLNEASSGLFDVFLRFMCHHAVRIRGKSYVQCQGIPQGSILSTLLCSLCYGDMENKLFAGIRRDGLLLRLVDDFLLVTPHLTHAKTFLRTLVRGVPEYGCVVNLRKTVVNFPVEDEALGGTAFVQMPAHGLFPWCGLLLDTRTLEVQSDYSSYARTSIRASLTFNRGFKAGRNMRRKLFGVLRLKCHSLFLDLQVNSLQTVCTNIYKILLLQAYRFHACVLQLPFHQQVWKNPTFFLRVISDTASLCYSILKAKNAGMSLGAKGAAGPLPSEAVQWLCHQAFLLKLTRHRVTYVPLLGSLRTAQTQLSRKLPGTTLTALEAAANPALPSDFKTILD
T2 sequence (O60832 whole entry partner): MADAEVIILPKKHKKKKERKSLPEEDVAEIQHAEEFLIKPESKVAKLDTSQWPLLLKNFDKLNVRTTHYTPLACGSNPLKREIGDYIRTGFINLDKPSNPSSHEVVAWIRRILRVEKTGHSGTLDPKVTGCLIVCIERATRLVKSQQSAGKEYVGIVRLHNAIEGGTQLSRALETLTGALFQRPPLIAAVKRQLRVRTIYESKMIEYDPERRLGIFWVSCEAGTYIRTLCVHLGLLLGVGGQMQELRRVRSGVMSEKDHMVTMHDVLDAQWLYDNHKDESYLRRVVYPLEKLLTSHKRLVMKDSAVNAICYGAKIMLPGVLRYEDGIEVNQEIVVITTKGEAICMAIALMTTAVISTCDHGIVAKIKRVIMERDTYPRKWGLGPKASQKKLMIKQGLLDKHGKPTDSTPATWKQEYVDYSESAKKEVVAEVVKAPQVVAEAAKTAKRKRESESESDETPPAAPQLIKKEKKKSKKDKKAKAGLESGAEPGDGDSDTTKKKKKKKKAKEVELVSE
T2 sequence (Q9NPE3 whole entry partner): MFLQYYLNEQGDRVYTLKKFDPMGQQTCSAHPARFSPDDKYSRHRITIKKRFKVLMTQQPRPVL
T2 sequence (Q9NX24 whole entry partner): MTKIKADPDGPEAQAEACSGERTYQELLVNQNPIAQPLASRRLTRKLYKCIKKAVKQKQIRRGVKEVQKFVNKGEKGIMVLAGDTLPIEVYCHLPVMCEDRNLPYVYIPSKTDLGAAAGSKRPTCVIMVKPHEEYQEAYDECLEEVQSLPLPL
T2 sequence (Q9NY12 whole entry partner): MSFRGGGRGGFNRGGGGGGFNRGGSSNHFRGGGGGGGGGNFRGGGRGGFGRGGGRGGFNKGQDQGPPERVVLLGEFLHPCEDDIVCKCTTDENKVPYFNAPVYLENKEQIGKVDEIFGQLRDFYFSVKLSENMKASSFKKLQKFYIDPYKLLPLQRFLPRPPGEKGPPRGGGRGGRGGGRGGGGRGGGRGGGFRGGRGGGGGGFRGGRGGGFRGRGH
T2 sequence (Q9BUR4 whole entry partner): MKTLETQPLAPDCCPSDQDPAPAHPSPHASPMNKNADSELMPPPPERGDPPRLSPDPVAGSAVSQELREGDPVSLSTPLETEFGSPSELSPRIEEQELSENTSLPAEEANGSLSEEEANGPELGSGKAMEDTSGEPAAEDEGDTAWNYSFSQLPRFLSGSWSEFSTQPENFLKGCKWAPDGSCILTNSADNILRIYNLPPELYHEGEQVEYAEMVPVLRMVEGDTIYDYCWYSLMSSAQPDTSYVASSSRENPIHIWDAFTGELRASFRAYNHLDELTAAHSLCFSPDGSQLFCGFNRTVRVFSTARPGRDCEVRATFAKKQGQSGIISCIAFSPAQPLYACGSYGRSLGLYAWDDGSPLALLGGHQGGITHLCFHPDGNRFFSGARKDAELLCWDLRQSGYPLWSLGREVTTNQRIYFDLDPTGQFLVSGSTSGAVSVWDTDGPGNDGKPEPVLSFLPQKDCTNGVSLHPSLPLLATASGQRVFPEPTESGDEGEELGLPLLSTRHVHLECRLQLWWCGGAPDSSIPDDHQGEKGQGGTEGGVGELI
T3 sequence (O14746 whole entry): as the sequence (O14746 whole entry) above
T3 sequence (O60832 whole entry partner): as the sequence (O60832 whole entry partner) above
T3 sequence (Q9NPE3 whole entry partner): as the sequence (Q9NPE3 whole entry partner) above
T3 sequence (Q9NX24 whole entry partner): as the sequence (Q9NX24 whole entry partner) above
T3 sequence (Q9NY12 whole entry partner): as the sequence (Q9NY12 whole entry partner) above
T4 sequence (O14746 whole entry): as the sequence (O14746 whole entry) above
T4 sequence (O60832 whole entry partner): as the sequence (O60832 whole entry partner) above
T4 sequence (Q9NPE3 whole entry partner): as the sequence (Q9NPE3 whole entry partner) above
T4 sequence (Q9NX24 whole entry partner): as the sequence (Q9NX24 whole entry partner) above
T4 sequence (Q9NY12 whole entry partner): as the sequence (Q9NY12 whole entry partner) above
T4 sequence (Q9BUR4 whole entry partner): as the sequence (Q9BUR4 whole entry partner) above
T1 sequence (O14746 whole entry): as the sequence (O14746 whole entry) above
T1 sequence (O60832 whole entry partner): as the sequence (O60832 whole entry partner) above
T1 sequence (Q9NPE3 whole entry partner): as the sequence (Q9NPE3 whole entry partner) above
T1 sequence (Q9NX24 whole entry partner): as the sequence (Q9NX24 whole entry partner) above
T1 sequence (Q9NY12 whole entry partner): as the sequence (Q9NY12 whole entry partner) above
T1 sequence (Q9BUR4 whole entry partner): as the sequence (Q9BUR4 whole entry partner) above

For `C=C1C(=O)[C@](C)(C(=O)OC)[C@H](CCc2cn(Cc3ccc(F)cc3F)nn2)O[C@@H]1C` [NU-1, methyl (2S,3R,6R)-2-(2-(1-(2,4-difluorobenzyl)-1H-1,2,3-triazol-4-yl)ethyl)-3,6-dimethyl-5 methylene-4-oxotetrahydro-2H-pyran-3-carboxylate], the results for the IC50 (in [1]; with MCF7 cells) were 0.27 µM and 27 µM, respectively. Also, the viability after washout entry in the data set with MCF-7 cells is given as “did not restore”. Also, in data set [2], the ketone-Schiff base formation entry is listed as “no ketone-Schiff base formation”. In addition, the “telomerase activity after washout” value is on record as “remained blocked” at telomerase in MCF7 cells (MCF7 cells washed, 4 h recovery) and “did not restore” on telomerase in MCF7 cells (washed, fresh media, 24 h). In the data set with tcTERT, the “adduct formation with tcTERT peptides” value is on record as “single modified peptide”. In addition, the microsomal stability entry in [3] was “satisfactory performance”. Besides, in the data set with Saos-2, the effect on viability entry is listed as “did not affect viability”. For the same compound, the lipophilicity entry in “Lipophilicity” is recorded as “favorable”. Further, the “time to complete inhibition” value in data set [4] (100 μM) is given as roughly 6 h. Besides, the “inhibition of telomere repeat synthesis” value in data set [4] (in words) was “low-micromolar range”. In [5], the endogenous telomerase activity result is “completely eliminated”.
